PMC6650409, “Modeling the binding of diverse ligands within the Ah receptor ligand binding domain” (Scientific Reports, 2019)
Where a chain is given by its changes, count along the chain named.

How the values were obtained:
H331A mutant AhR = target: T1, H331A mutant AhR (Mus musculus, UniProt P30561, H331A); assay: [3H]TCDD competitive ligand binding, H331A mutant AhR
T1 construct: made in house; host or cells: in vitro, Promega TNT Quick rabbit reticulocyte lysate
T1 sequence (P30561 10-848 H331A): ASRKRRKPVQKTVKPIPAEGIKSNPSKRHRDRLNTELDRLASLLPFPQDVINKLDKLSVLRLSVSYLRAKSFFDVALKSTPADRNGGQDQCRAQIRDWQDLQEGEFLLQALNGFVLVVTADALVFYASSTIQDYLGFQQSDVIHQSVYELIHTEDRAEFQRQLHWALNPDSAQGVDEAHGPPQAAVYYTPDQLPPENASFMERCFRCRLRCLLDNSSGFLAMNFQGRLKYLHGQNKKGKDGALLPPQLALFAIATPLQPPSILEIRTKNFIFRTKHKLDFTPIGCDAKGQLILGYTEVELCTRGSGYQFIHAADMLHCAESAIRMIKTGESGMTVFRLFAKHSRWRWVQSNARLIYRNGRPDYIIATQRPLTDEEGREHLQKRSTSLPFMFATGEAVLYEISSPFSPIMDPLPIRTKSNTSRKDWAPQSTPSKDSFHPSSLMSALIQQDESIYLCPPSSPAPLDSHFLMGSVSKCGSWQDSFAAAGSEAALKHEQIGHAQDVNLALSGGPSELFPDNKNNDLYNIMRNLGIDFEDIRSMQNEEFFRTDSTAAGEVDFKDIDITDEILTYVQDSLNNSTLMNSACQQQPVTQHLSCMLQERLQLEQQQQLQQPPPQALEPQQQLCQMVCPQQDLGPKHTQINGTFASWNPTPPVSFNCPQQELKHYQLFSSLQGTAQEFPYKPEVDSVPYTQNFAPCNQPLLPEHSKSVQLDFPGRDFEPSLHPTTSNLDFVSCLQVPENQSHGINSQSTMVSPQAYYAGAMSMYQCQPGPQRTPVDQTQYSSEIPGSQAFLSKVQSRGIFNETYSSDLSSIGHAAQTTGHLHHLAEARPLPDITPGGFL
Experimental: The mouse AhR (mAhR) and ARNT (mARNT) expression plasmids, mβAhR/pcDNA3 and mβArnt/pcDNA3, have been previously described. Point mutations of mβAhR/pcDNA3 were carried out using the QuikChange Lightning Mutagenesis Kit (Agilent Technologies) and all constructs were verified by sequencing.
[^3H]TCDD specific binding to wild-type or mutant mAhRs synthesized in vitro using the Promega TNT Quick coupled transcription/translation rabbit reticulocyte lysate kit (Madison, WI) was carried out as previously described. [^3H]TCDD specific binding was determined by subtracting the amount of [^3H]TCDD bound to unprogrammed lysate (nonspecific binding) from the total amount of [^3H]TCDD binding to lysate containing in vitro expressed AhR. The amount of [^3H]TCDD specific binding remaining in the presence of the indicated competitor chemical was expressed as a percent of the total [^3H]TCDD specific binding. The relative binding affinity (IC50) of each chemical was determined from concentration-dependent competitive inhibition curves obtained using [^3H]TCDD and increasing concentrations of each test chemical and the mean IC50 value was determined using three-parameter non-linear regression.

C327A mutant AhR = target: T2, C327A mutant AhR (Mus musculus, UniProt P30561, C327A); parameters: method as in PMID 21981577; details: C327A mutation; cited from earlier work
T2 construct: made in house; host or cells: in vitro, Promega TNT Quick rabbit reticulocyte lysate
T2 sequence (P30561 10-848 C327A): T1 sequence (P30561 10-848 H331A) with C318A, A322H

SMILES | change of relative binding affinity versus wild-type AhR (H331A mutant AhR; H331A mutation, in words) | IC50 (H331A mutant AhR; Table S6, AhR mutant H331A) [pM] | TCDD binding activity (C327A mutant AhR)
Cc1ccc2cc3c(ccc4ccccc43)c3c2c1CC3 [3MC, 3-methylcholanthrene] | dramatically increased | 141 | 
Clc1cc2c(cc1Cl)Oc1cc(Cl)c(Cl)cc1O2 [TCDD, 2,3,7,8-tetrachlorodibenzo-p-dioxin] |  |  | only partially affected
